Source: US5744453A, “Polyamine conjugates for treatment of infection” (priority 1996, dated 1998)
Values after ≈ are worked out from the molar mass of the structure shown. Like-named read-outs stand apart in the source and are kept apart here.

What was measured:
Format in all cases: cell-based
[1] = system: Escherichia coli strain 25922; experiment: Determination of MIC against bacteria (Table 1), E. coli 25922; details: read-out: minimum inhibitory concentration (MIC), E. coli 25922
Experimental: (§1) Antibiotic indicator strains Escherichia coli strain 25922, Enterococcus faecalis 29212, Pseudomonas aeruginosa 27853, and Staphylococcus aureus 29213 are obtained from the American Type Tissue Culture Collection (ATCC) in Rockville, Md. The cystic fibrosis isolate, Pseudomonas aeruginosa 39324, is also obtained from ATCC. Bacteria are routinely cultivated in cation-supplemented Mueller-Hinton broth (CAMHB) or agar at 37° C.
(§2) The minimum inhibitory concentration (MIC) of glycosylated and non-glycosylated steroidal polyamines for antibiotic indicator strains is determined by dissolving the test compounds in deionized water to a final concentration of 1 mg per mL. […] These solutions are sterilized by filtration through 0.22 micron syringe filters.
(§3) Stock solutions of individual compounds are serially diluted (two-fold) in sterile CAMHB in 96-well tissue culture dishes (Falcon) and inoculated with antibiotic indicator strains that are prepared as described below.
(§4) Antibiotic indicator strains are grown in 5 mL of CAMHB for 3-4 h at 37° C. with shaking (200 rpm) on a New Brunswick rotary shaker. Bacteria are adjusted to a turbidity that matched a 0.5 McFarland standard (ca. 10^8 CFU per mL) in sterile 0.85% saline. These bacterial suspensions are diluted 1:20 in sterile 0.85% saline and 10 μL (ca. […]) of each suspension is used to inoculate individual wells of a 96 well plate that contained different concentrations of the test compounds. Following inoculation, the plates are sealed with plastic tape, incubated for 24 h at 37° C. and visually inspected for bacterial growth. CAMHB inoculated with each of the antibiotic test strains and uninoculated CAMBH plus each of the test compounds served as positive and negative controls.

[2] = system: Pseudomonas aeruginosa 27853; experiment: Determination of MIC against bacteria (Table 1), P. aeruginosa 27853; details: read-out: minimum inhibitory concentration (MIC), P. aeruginosa 27853
Experimental: as §1, §2, §3, §4

[3] = system: Enterococcus faecalis 29212; experiment: Determination of MIC against bacteria (Table 1), E. faecalis 29212; details: read-out: minimum inhibitory concentration (MIC), E. faecalis 29212
Experimental: as §1, §2, §3, §4

[4] = system: Staphylococcus aureus 29213; experiment: Determination of MIC against bacteria (Table 1), S. aureus 29213; details: read-out: minimum inhibitory concentration (MIC), S. aureus 29213
Experimental: as §1, §2, §3, §4

[5] = system: Pseudomonas aeruginosa 39324; experiment: Determination of MIC against bacteria (Table 1), P. aeruginosa 39324 (cystic fibrosis isolate); details: read-out: minimum inhibitory concentration (MIC), P. aeruginosa 39324
Experimental: as §1, §2, §3, §4

[6] = Pseudomonas aeruginosa, 27853, 24 h
[7] = Enterococcus faecalis, 29212, 24 h
[8] = Staphylococcus aureus, 29213, 24 h
[9] = Pseudomonas aeruginosa, 39324, 24 h
[10] = Escherichia coli, 25922, CAMHB, 24 h at 37° C., tested from 1.56 to 200 μg per mL
[11] = Pseudomonas aeruginosa, 27853, CAMHB, 24 h at 37° C., tested from 1.56 to 200 μg per mL
[12] = Enterococcus faecalis, 29212, CAMHB, 24 h at 37° C., tested from 1.56 to 200 μg per mL
[13] = Staphylococcus aureus, 29213, CAMHB, 24 h at 37° C., tested from 1.56 to 200 μg per mL
[14] = Pseudomonas aeruginosa, 39324, CAMHB, 24 h at 37° C., tested from 1.56 to 200 μg per mL

Compound	MIC ([1]; Escherichia coli, 25922, 24 h)	MIC [2, 6]	MIC [3, 7]	MIC [4, 8]	MIC [5, 9]	MIC [1, 10]	MIC [2, 11]	MIC [3, 12]	MIC [4, 13]	MIC [5, 14]
C[C@H](CCC(=O)NCCCNCCCCNCCCN)[C@H]1CC[C@H]2[C@@H]3CC[C@@H]4C[C@H](O)CC[C@]4(C)[C@H]3C[C@H](O)[C@]12C [Compound A, 3α,12α-dihydroxy-7-deoxy-5β-cholan-24-oic acid, N-(4,9-diaza-12-aminododecyl)amide]	12.5 mg/L (≈ 21.7 µM)	3.12 mg/L (≈ 5.41 µM)	12.5 mg/L (≈ 21.7 µM)	6.25 mg/L (≈ 10.8 µM)	25 mg/L (≈ 43.3 µM)	–	–	–	–	–
C[C@H](CCC(=O)NCCCNCCCCNCCCN)[C@H]1CC[C@H]2[C@@H]3[C@H](O)C[C@@H]4C[C@H](O)CC[C@]4(C)[C@H]3C[C@H](O)[C@]12C [Compound B, 3α,7α,12α-trihydroxy-5β-cholan-24-oic acid, N-(4,9-diaza-12-aminododecyl)amide]	200 mg/L (≈ 337 µM)	100 to 200 mg/L (≈ 169 to 337 µM)	200 mg/L (≈ 337 µM)	50 mg/L (≈ 84.3 µM)	100 mg/L (≈ 169 µM)	–	–	–	–	–
C[C@H](CCC(=O)NCCCNCCCCNCCCN)[C@H]1CC[C@H]2[C@@H]3[C@H](O[C@H]4O[C@H](CO)[C@@H](O)[C@H](O)[C@H]4O)C[C@@H]4C[C@H](O)CC[C@]4(C)[C@H]3C[C@H](O[C@H]3O[C@H](CO)[C@@H](O)[C@H](O)[C@H]3O)[C@]12C [Compound C, 3α-hydroxy-7α,12α-di(1'α-glucosyl)-5β-cholan-24-oic acid, N-(4,9-diaza-12-aminododecyl)amide]	200 mg/L (≈ 218 µM)	200 mg/L (≈ 218 µM)	> 200 mg/L	200 mg/L (≈ 218 µM)	–	–	–	–	–	–
C[C@H](CCC(=O)NCCCNCCCCNCCCN)[C@H]1CC[C@H]2[C@@H]3CC[C@@H]4C[C@H](O)CC[C@]4(C)[C@H]3C[C@H](O[C@H]3O[C@H](CO)[C@@H](O)[C@H](O)[C@H]3O)[C@]12C [Compound D, 3α-hydroxy-7-deoxy-12α-(1'α-glucosyl)-5β-cholan-24-oic acid, N-(4,9-diaza-12-aminododecyl)amide]	100 mg/L (≈ 135 µM)	100 to 200 mg/L (≈ 135 to 271 µM)	200 mg/L (≈ 271 µM)	50 to 100 mg/L (≈ 67.7 to 135 µM)	–	–	–	–	–	–
C[C@H](CCC(=O)NCCCNCCCCNCCCN)[C@H]1CC[C@H]2[C@@H]3[C@H](O[C@H]4O[C@H](CO)[C@@H](O)[C@H](O)[C@H]4O)C[C@@H]4C[C@H](O)CC[C@]4(C)[C@H]3CC[C@]12C [Compound E, 3α-hydroxy-12-deoxy-7α-(1'α-glucosyl)-5β-cholan-24-oic acid, N-(4,9-diaza-12-aminododecyl)amide]	12.5 mg/L (≈ 16.9 µM)	12.5 mg/L (≈ 16.9 µM)	25 mg/L (≈ 33.8 µM)	25 mg/L (≈ 33.8 µM)	12.5 mg/L (≈ 16.9 µM)	–	–	–	–	–
C[C@H](CCC(=O)NCCNCCNCCNCCN)[C@H]1CC[C@H]2[C@@H]3CC[C@@H]4C[C@H](O)CC[C@]4(C)[C@H]3C[C@H](O)[C@]12C [Compound F, 3α,12α-dihydroxy-7-deoxy-5β-cholan-24-oic acid, N-(3,6,9-triaza-11-aminoundecyl)amide]	–	–	–	–	–	100 mg/L (≈ 177 µM)	100 mg/L (≈ 177 µM)	100 mg/L (≈ 177 µM)	25 mg/L (≈ 44.3 µM)	100 mg/L (≈ 177 µM)
C[C@H](CCC(=O)NCCNCCNCCNCCNCCN)[C@H]1CC[C@H]2[C@@H]3CC[C@@H]4C[C@H](O)CC[C@]4(C)[C@H]3C[C@H](O)[C@]12C [Compound G, 3α,12α-dihydroxy-7-deoxy-5β-cholan-24-oic acid, N-(3,6,9,12-tetraaza-14-aminotetradecyl)amide]	–	–	–	–	–	100 mg/L (≈ 165 µM)	50 mg/L (≈ 82.4 µM)	100 mg/L (≈ 165 µM)	25 mg/L (≈ 41.2 µM)	50 to 100 mg/L (≈ 82.4 to 165 µM)
C[C@H](CCC(=O)NCCNCCNCCNCCN)[C@H]1CC[C@H]2[C@@H]3[C@H](O)C[C@@H]4C[C@H](O)CC[C@]4(C)[C@H]3CC[C@]12C [Compound I, 3α,7α-dihydroxy-12-deoxy-5β-cholan-24-oic acid, N-(3,6,9-triaza-11-aminoundecyl)amide]	–	–	–	–	–	25 mg/L (≈ 44.3 µM)	50 mg/L (≈ 88.7 µM)	25 mg/L (≈ 44.3 µM)	12.5 mg/L (≈ 22.2 µM)	50 mg/L (≈ 88.7 µM)
